{"source": "patent US7625945B2", "about": "“Andrographolide and analogues as inhibitors of TNFα and IL-1β expression” (Hutchison MediPharma Enterprises Ltd., priority 2004, dated 2009)", "system": "DNBS-induced colitis", "assay": "In vivo assay: DNBS-induced distal colitis in rats", "design": "species or system Male Wistar rats", "details": "DNBS-treated rats, 10 mg/kg i.p.", "protocol": "Male Wistar rats (170-190 g, provided by Chinese academy of science animal center, Shanghai) were housed (7˜8 rats per cage) in a controlled environment and fed with standard rodent chow and water. Distal colitis was induced to the rats according to the procedure described in Hogaboam C. M., European Journal of Pharmacology, 1996, 309: 261-269. Briefly, the rats were anaesthetized with 1% pentobarbital sodium. 2,4-Dinitrobenzene sulfonic acid (DNBS) in 0.25 ml of 30% ethanol (v/v) was introduced into the colon (8 cm proximal to the anus) via a PE 50 cannula. In the control group (blank-control), 30% ethanol (v/v), in stead of DNBS in ethanol, was introduced. Andrographolide (10 mg/kg, i.p.) was administered to a group of DNBS-treated rats 24 hours and 2 hours prior to the colitis induction and once daily thereafter for 5 days. The rats were weighed daily. All rats were sacrificed 6 days after the colitis induction, and colon, spleen, and thymus were removed and weighed. The colon weight/body weight ratio, spleen weight/body weight ratio, and thymus weight/body weight ratio were calculated. Samples of colon tissues located precisely 2 cm above the anal canal were obtained, fixed in 10% neutral-buffered formalin, embedded in paraffin, sectioned, and stained with hematoxylin/eosin. The samples were examined under microscope to determine severity of the lesions.", "data": [{"compound": "C=C1CC[C@@H]2[C@](C)(CO)[C@H](O)CC[C@@]2(C)[C@@H]1C/C=C1/C(=O)OC[C@H]1O", "note": "[andrographolide]", "values": [{"measurement": "overall effect on DNBS-induced colitis", "value": "effectively alleviated or even cured"}, {"measurement": "microscopic examination of colon: severity of inflammation", "setting": "colon sections hematoxylin/eosin, 6 days after induction", "value": "much less severe inflammation"}, {"measurement": "colon weight/body weight ratio", "setting": "treatment for 6 days", "value": "decreased"}, {"measurement": "wasting syndrome (weight loss, diarrhea)", "setting": "treatment for 6 days", "value": "alleviated wasting syndrome"}]}]}
